For one compound, fold activation results are on record in article doi:10.1101/2025.02.28.640722v1 (biorxiv, 2025).

Square brackets hold non-standard residues; d marks the D form. Peptide text beside a SMILES is read from it. * marks the point of attachment. hCha = N[C@@H](CCC1CCCCC1)C(=O)O; Bz = O=C(c1ccccc1)*

The target of the experiment is Human mitochondrial ClpP (hClpP) (Homo sapiens, UniProt Q16740). Description: peptidase activation. Format: biochemical. The note with it: activator at 1.5 mM, 200 nM human ClpP, no ATPase partner.
Chain of Human mitochondrial ClpP (hClpP) (Q16740 57-277): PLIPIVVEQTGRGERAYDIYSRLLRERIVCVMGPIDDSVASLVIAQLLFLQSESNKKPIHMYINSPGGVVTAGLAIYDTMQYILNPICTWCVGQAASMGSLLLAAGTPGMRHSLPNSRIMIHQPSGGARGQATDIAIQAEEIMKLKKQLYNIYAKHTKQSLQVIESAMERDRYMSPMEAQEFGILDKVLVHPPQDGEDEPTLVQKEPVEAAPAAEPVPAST

Consider `CC[C@H](C)[C@H](NC(=O)[C@H](CCC1CCCCC1)NC(=O)c1ccccc1)C(=O)O` [Bz-ChEtg-Ile] (Bz-[hCha]-Ile-OH), for which the fold activation was over 15 times.
